Ends that are not written are not given here. Peptide text beside a SMILES is read from it. * marks the point of attachment. fluorescein = fluorescein group attached to the lysine side chain; Benzoyl(4-Br) = O=C(c1ccc(Br)cc1)*; Myristoyl = CCCCCCCCCCCCCC(=O)*; Bz = O=C(c1ccccc1)*
How the values were obtained:
AsPC1 cells [1] = assay: Apoptosis assay (annexin/PI); assay type: cell-based, human; details: 50-200 μM
Experimental: (§1) MDA231-WT and AsPC1 ells were seeded into 6-well plates at a density of 4×10^5/2 ml of RPMI medium per well and grown overnight. Next day cells were treated with GIPC inhibitor peptides in a time dependent (48 h-96 h) and dose dependent manner (50-200 μM). After treatment with definite time, cells were extensively washed with PBS and tested with the Annexin V-FITC Apoptosis Detection Kit (Biovision, Cat. No. #K101-100) per the manufacturer's instructions.

MDA-MB-231-WT cells = assay: Apoptosis assay (annexin/PI); assay type: cell-based; details: 50-200 μM
Experimental: as §1

AsPC1 cells [2] = assay type: cell-based, human; details: 50-200 μM, 48 h-96 h (Example 6)
Experimental: (§2) MDA231-W and AsPC1 cells were cultured in RPMI 1640 media supplemented with 10% fetal bovine serum (FBS), 5% L-Glutamine, and 1% antibiotics (penicillin-streptomycin purchased from Invitrogen, Carlsbad, Calif.). Cells were maintained at 37° C. in an atmosphere containing 95% air-5% CO2 (v/v). Cells were then incubated with different doses of GIPC inhibitor peptides (50-200 μM) for different time (48 h to 96 h). MDA-231 WT (4×10^4) and AsPC1 cells (2×10^4) were seeded in 24-well plates, cultured for 1 d in RPMI 1640 medium supplemented with 10% FBS, 5% L-Glutamine, and 1% antibiotics. Cells were then incubated with GIPC inhibitor peptides in a time dependent (48 h-96 h) and dose dependent manner (50-200 μM). After certain time of incubation, 1 μCi [^3H]-thymidine was added and proliferation assay performed as previously described. Experiments were repeated at least thrice and in triplicate.

[3] = system: MDA-MB-231-WT breast cancer cells; assay type: cell-based; details: 50-200 μM, 48 h-96 h (Example 6)
Experimental: as §2

[4] = system: MIAPaCa2 pancreatic cancer cells; assay: Subcutaneous MIAPaCa2 tumor, intratumoral peptide for 27 days; assay type: in vivo, nude mice; details: whole course of treatment
Experimental: When the tumor reached about 5 mm-15 mm in diameter after subcutaneous transplantation of MIAPaCa2 cells (n=10 treatment, n=10 control) into the mouse right flank, mice were treated with 10 mM of peptide for 27 days dissolved in DMSO. The peptide was applied directly into the tumor. The control group was treated with phosphate buffered saline solution alone.
HE staining and immunostaining for Ki67 (n=6 treatment, n=7 control) was performed as described by the manufacturer. For evaluation the Zeiss Axioplan 2 microscope was used. Photos are made with Zeiss Axiocam. For photos 40× objectives were used. Statistical Analysis. Data are presented as means and differences in means with 95% confidence intervals for the differences. Tests for statistical differences were performed using t-tests and Mann-Whitney tests and Wilcoxon tests. For the in vivo experiments, at least 10 mice were used each group. This number was derived by power analysis to detect a 50% reduction in tumor size, with a beta error of 3%. Because the overall sample size was small and outcome variables could have a non-normal distribution, the non-parametric Mann-Whitney test was used to detect statistical significant differences in each group. P values less than 0.05 were considered to be significant. The significance of the tumor take rates was calculated by using a Wilcoxon-test. […]

AsPC1 cells [5] = assay: Cellular localization of fluorescein-tagged analogs (confocal); assay type: cell-based, human
Description: Furthermore, the cellular localization of both CR1023 and CR1166 was investigated in AsPC1 cells using their fluorescein-tagged analogs CR1171 and CR1173 (FIG. 24). CR1172, the fluorescein-tagged analog of CR1164 was used as a control. The green (for fluorescein) and blue (for DAPI) fluorescent microscopy images were collected for AsPC1 cells treated with peptides CR1171, CR1172 and CR1173 using a LSM 510 confocal laser scan microscope. The presence of green fluorescence in FIGS. 24d, -g, -j indicated the internalization of CR1171, CR1172 and CR1173. Untreated AsPC1 cells were devoid of the green fluorescent signal.

| Molecule | induction of apoptosis (AsPC1 cells [1]) | induction of apoptosis (MDA-MB-231-WT cells) | inhibition of cell proliferation (AsPC1 cells [2]) | inhibition of cell proliferation [3] | toxicity during treatment ([4]; listed as GIPC-PDZ-targeting peptide) | toxicity during treatment ([4]; listed as PDZ domain inhibitor) | cellular localization (AsPC1 cells [5]) | internalization (green fluorescence) (AsPC1 cells [5]) |
| --- | --- | --- | --- | --- | --- | --- | --- | --- |
| My-SESPSASQ (Myristoyl-SESPSASQ) [CR2055] | no effect | no effect | no effect | no effect |  |  |  |  |
| My-LLQGPSQSSSEA (Myristoyl-LLQGPSQSSSEA) [SEQ ID NO: 22] | significant induction of apoptosis | significant induction of apoptosis | significant inhibitions | significant inhibitions |  |  |  |  |
| My-PSQSSSK(4-Br-ben)A (Myristoyl-PSQSSSK(Benzoyl(4-Br))A) [CR1162] |  |  | almost no or little effect | almost no or little effect |  |  |  |  |
| CCCCCCCCCCCCCC(=O)N1CCC[C@H]1C(=O)N[C@@H](CO)C(=O)N[C@@H](CCC(N)=O)C(=O)N[C@@H](CO)C(=O)N[C@@H](CO)C(=O)N[C@@H](CO)C(=O)N[C@@H](CCC(=O)O)C(=O)N[C@@H](C)C(=O)O [PSQSSSEA, P-S-Q-S-S-S-E-A] (Myristoyl-PSQSSSEA-OH) |  |  |  |  | without showing toxicity | did not show any toxicity |  |  |
| My-K(FI)PSQSK(ben)SK(ben)A (Myristoyl-K(fluorescein)PSQSK(Bz)SK(Bz)A) [CR1172] |  |  |  |  |  |  | more dispersely localized | internalization |
| My-SPSASK(4-Br-ben)SQ (Myristoyl-SPSASK(Benzoyl(4-Br))SQ) [CR2059] | no effect | no effect | very little effect | very little effect |  |  |  |  |
| My-PSQSK(4-Br-ben)SEA (Myristoyl-PSQSK(Benzoyl(4-Br))SEA) [CR1170] | no effect | no effect |  |  |  |  |  |  |
| My-K(FI)PSQSSSEA (Myristoyl-K(fluorescein)PSQSSSEA) [CR1171] |  |  |  |  |  |  | more dispersely localized | internalization |
| My-K(FI)PSQSK(4-Br-ben)SK(4-Br-ben)A (Myristoyl-K(fluorescein)PSQSK(Benzoyl(4-Br))SK(Benzoyl(4-Br))A) [CR1173] |  |  |  |  |  |  | localized on the membrane | internalization |
| My-PSQSK(ben)SK(ben)A (Myristoyl-PSQSK(Bz)SK(Bz)A) [CR1164] | no effect | no effect | almost no or little effect | almost no or little effect |  |  |  |  |
